Data as given in article PMC12420824, “Discovery of a selective alpha-kinase 1 inhibitor for the rare genetic disease ROSAH syndrome” (Nature Communications, 2025).

Columns and labels:
EPHA4 = EPHA4 (Homo sapiens, UniProt P54764); assay: HotSpot kinase assay; conditions: read-out: % Enzyme Activity (relative to DMSO control), 10 uM
Excerpt: (§1) Additionally, a 10-dose dilution series of staurosporine and other enzyme-appropriate compounds were included as positive control inhibitors.

PAK6 = PAK6 (Homo sapiens, UniProt Q9NQU5); assay: HotSpot kinase assay; conditions: read-out: % Enzyme Activity (relative to DMSO control), 10 uM
Excerpt: as §1

DYRK1B = DYRK1B (Homo sapiens, UniProt Q9Y463); assay: HotSpot kinase assay; conditions: read-out: % Enzyme Activity (relative to DMSO control), 10 uM
Excerpt: as §1

MLCK/MYLK = MLCK/MYLK (Homo sapiens, UniProt Q15746); assay: HotSpot kinase assay; conditions: read-out: % Enzyme Activity (relative to DMSO control), 10 uM
Sequence of MLCK/MYLK (Q15746 whole entry): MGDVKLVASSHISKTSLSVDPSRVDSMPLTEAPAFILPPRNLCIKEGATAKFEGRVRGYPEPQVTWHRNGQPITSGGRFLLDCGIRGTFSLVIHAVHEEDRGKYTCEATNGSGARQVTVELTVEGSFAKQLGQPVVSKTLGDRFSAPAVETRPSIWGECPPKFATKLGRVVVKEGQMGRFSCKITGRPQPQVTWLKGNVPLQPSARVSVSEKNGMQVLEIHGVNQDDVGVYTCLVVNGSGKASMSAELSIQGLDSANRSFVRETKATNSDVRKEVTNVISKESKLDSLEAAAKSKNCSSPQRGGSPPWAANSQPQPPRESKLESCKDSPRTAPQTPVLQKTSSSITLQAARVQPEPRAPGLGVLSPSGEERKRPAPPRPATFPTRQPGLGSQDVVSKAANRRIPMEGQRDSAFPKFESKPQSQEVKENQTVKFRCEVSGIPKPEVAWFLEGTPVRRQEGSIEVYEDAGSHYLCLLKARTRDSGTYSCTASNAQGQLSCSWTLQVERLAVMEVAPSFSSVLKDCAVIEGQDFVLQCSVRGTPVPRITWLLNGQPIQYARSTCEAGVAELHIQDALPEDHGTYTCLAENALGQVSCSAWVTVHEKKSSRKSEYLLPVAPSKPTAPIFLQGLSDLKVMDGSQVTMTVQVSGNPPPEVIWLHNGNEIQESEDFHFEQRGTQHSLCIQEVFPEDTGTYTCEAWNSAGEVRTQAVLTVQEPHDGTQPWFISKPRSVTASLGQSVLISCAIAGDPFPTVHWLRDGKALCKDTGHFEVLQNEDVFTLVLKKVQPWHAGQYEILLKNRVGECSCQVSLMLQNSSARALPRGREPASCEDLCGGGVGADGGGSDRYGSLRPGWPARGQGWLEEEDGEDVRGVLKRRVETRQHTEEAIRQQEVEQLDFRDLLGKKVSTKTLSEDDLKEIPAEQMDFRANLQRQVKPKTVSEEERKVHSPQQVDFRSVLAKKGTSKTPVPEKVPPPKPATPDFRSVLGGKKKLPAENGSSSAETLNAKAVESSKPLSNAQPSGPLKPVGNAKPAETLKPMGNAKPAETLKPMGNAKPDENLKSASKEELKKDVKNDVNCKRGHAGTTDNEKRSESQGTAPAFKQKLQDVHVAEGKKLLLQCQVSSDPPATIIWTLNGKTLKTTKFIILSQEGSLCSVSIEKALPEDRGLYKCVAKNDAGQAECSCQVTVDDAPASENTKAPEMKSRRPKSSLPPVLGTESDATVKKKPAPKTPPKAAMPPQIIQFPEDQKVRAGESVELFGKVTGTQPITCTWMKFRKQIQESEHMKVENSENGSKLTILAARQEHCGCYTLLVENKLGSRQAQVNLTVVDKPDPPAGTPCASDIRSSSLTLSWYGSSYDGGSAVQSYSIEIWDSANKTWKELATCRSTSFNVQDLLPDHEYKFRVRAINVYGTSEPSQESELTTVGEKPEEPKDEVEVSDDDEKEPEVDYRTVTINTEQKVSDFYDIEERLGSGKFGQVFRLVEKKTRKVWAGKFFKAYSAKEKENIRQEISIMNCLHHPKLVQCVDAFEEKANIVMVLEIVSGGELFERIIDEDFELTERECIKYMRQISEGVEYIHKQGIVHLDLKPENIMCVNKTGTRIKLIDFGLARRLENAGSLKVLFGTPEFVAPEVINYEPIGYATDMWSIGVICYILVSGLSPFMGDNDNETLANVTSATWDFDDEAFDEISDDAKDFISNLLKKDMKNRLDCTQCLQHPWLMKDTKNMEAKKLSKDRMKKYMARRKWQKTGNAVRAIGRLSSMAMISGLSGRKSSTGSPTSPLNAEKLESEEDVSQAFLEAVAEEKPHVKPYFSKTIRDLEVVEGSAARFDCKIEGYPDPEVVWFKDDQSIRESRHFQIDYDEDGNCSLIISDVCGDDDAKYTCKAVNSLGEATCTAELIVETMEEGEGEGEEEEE
Excerpt: as §1

CDK18/cyclin Y (PCTK3) = CDK18/cyclin Y (PCTK3) (Homo sapiens, UniProt Q07002); assay: HotSpot kinase assay; conditions: read-out: % Enzyme Activity (relative to DMSO control), 10 uM
Excerpt: as §1

NEK5 = NEK5 (Homo sapiens, UniProt Q6P3R8); assay: HotSpot kinase assay; conditions: read-out: % Enzyme Activity (relative to DMSO control), 10 uM
Sequence of NEK5 (Q6P3R8 whole entry): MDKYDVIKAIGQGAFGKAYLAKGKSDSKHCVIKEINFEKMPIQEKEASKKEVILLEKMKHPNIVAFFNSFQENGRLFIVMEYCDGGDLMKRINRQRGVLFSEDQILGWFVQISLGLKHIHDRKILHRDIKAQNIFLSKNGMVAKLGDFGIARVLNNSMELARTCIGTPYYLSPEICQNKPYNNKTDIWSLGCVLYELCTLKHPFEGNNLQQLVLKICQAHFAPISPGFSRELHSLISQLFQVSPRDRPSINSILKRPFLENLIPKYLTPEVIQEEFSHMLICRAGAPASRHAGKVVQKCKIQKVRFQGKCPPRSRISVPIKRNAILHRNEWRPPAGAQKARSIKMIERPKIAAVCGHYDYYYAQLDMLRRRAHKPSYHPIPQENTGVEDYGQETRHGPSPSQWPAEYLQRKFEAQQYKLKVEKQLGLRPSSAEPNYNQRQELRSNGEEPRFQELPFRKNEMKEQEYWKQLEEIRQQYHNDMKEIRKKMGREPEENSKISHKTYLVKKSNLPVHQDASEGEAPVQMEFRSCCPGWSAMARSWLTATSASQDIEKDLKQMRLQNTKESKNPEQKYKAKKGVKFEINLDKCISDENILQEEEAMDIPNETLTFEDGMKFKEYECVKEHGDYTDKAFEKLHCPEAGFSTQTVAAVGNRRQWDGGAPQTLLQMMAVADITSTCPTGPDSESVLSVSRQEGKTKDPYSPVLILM
Excerpt: as §1

PDK4/PDHK4 = PDK4/PDHK4 (Homo sapiens, UniProt Q16654); assay: HotSpot kinase assay; conditions: read-out: % Enzyme Activity (relative to DMSO control), 10 uM
Excerpt: as §1

mTOR/FRAP1 = mTOR/FRAP1 (Homo sapiens, UniProt P42345); assay: HotSpot kinase assay; conditions: read-out: % Enzyme Activity (relative to DMSO control), 10 uM
Excerpt: as §1

MAPKAPK5/PRAK = MAPKAPK5/PRAK (Homo sapiens, UniProt Q8IW41); assay: HotSpot kinase assay; conditions: read-out: % Enzyme Activity (relative to DMSO control), 10 uM
MAPKAPK3 = MAPKAPK3 (Homo sapiens, UniProt Q16644); assay: HotSpot kinase assay; conditions: read-out: % Enzyme Activity (relative to DMSO control), 10 uM
Sequence of MAPKAPK3 (Q16644 whole entry): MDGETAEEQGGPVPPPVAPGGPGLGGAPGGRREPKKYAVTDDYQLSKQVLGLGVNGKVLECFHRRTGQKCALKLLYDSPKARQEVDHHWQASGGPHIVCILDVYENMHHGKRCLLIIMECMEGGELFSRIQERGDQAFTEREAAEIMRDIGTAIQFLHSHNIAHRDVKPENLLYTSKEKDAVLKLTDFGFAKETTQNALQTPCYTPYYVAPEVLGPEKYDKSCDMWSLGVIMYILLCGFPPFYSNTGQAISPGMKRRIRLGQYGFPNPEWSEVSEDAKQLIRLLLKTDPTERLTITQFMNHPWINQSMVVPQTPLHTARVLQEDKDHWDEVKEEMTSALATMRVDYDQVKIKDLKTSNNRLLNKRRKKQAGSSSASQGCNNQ
Excerpt: as §1

PDGFRb = PDGFRb (Homo sapiens, UniProt P09619); assay: HotSpot kinase assay; conditions: read-out: % Enzyme Activity (relative to DMSO control), 10 uM
HIPK2 = HIPK2 (Homo sapiens, UniProt Q9H2X6); assay: HotSpot kinase assay; conditions: read-out: % Enzyme Activity (relative to DMSO control), 10 uM
Excerpt: as §1

EPHA2 = EPHA2 (Homo sapiens, UniProt P29317); assay: HotSpot kinase assay; conditions: read-out: % Enzyme Activity (relative to DMSO control), 10 uM
PKCepsilon = PKCepsilon (Homo sapiens, UniProt Q02156); assay: HotSpot kinase assay; conditions: read-out: % Enzyme Activity (relative to DMSO control), 10 uM
Excerpt: as §1

LRRK2 = LRRK2 (Homo sapiens, UniProt Q5S007); assay: HotSpot kinase assay; conditions: read-out: % Enzyme Activity (relative to DMSO control), 10 uM
Excerpt: as §1

MKK6 = MKK6 (Homo sapiens, UniProt P52564); assay: HotSpot kinase assay; conditions: read-out: % Enzyme Activity (relative to DMSO control), 10 uM
Excerpt: as §1

GRK6 = GRK6 (Homo sapiens, UniProt P43250); assay: HotSpot kinase assay; conditions: read-out: % Enzyme Activity (relative to DMSO control), 10 uM
Excerpt: as §1

CK1a1L = CK1a1L (Homo sapiens, UniProt Q8N752); assay: HotSpot kinase assay; conditions: read-out: % Enzyme Activity (relative to DMSO control), 10 uM
Sequence of CK1a1L (Q8N752 whole entry): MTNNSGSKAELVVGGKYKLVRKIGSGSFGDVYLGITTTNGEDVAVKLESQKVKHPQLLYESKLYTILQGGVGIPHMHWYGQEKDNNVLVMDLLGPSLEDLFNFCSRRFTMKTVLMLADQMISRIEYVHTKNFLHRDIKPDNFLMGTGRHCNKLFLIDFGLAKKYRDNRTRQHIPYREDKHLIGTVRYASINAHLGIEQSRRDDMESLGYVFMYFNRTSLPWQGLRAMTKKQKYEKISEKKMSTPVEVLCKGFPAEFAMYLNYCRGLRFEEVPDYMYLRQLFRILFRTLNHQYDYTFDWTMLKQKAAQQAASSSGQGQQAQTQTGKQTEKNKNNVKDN

PKA = PKA (Homo sapiens, UniProt P17612); assay: HotSpot kinase assay; conditions: read-out: % Enzyme Activity (relative to DMSO control), 10 uM
Excerpt: as §1

PBK/TOPK = PBK/TOPK (Homo sapiens, UniProt Q96KB5); assay: HotSpot kinase assay; conditions: read-out: % Enzyme Activity (relative to DMSO control), 10 uM
Excerpt: as §1

MST1/STK4 = MST1/STK4 (Homo sapiens, UniProt Q13043); assay: HotSpot kinase assay; conditions: read-out: % Enzyme Activity (relative to DMSO control), 10 uM
DAPK2 = DAPK2 (Homo sapiens, UniProt Q9UIK4); assay: HotSpot kinase assay; conditions: read-out: % Enzyme Activity (relative to DMSO control), 10 uM
Excerpt: as §1

MEK2 = MEK2 (Homo sapiens, UniProt P36507); assay: HotSpot kinase assay; conditions: read-out: % Enzyme Activity (relative to DMSO control), 10 uM
Sequence of MEK2 (P36507 whole entry): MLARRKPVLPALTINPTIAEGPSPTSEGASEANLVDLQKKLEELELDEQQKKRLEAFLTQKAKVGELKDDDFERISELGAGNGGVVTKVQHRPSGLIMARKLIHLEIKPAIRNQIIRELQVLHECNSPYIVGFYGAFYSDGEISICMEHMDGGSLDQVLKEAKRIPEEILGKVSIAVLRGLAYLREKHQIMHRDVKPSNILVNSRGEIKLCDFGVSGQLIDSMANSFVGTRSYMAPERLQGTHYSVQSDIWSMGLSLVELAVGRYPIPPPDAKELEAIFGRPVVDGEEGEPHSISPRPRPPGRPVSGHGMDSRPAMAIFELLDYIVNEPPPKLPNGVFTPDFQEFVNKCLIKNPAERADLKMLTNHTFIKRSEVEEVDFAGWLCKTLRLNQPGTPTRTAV

NEK7 = NEK7 (Homo sapiens, UniProt Q8TDX7); assay: HotSpot kinase assay; conditions: read-out: % Enzyme Activity (relative to DMSO control), 10 uM
Sequence of NEK7 (Q8TDX7 whole entry): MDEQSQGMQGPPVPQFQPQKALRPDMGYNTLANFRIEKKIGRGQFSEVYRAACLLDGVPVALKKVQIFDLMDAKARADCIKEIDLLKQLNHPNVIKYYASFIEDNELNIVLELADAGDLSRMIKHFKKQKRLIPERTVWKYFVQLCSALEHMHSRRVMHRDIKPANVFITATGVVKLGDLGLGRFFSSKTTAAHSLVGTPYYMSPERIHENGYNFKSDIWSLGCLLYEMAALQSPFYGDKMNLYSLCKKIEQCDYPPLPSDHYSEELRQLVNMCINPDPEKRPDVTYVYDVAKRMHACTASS
Excerpt: as §1

EPHB2 = EPHB2 (Homo sapiens, UniProt P29323); assay: HotSpot kinase assay; conditions: read-out: % Enzyme Activity (relative to DMSO control), 10 uM
Excerpt: as §1

CDK8/cyclin C = CDK8/cyclin C (Homo sapiens, UniProt P49336); assay: HotSpot kinase assay; conditions: read-out: % Enzyme Activity (relative to DMSO control), 10 uM
Excerpt: as §1

TYRO3/SKY = TYRO3/SKY (Homo sapiens, UniProt Q06418); assay: HotSpot kinase assay; conditions: read-out: % Enzyme Activity (relative to DMSO control), 10 uM
Excerpt: as §1

PIM1 = PIM1 (Homo sapiens, UniProt P11309); assay: HotSpot kinase assay; conditions: read-out: % Enzyme Activity (relative to DMSO control), 10 uM
Excerpt: as §1

CLK2 = CLK2 (Homo sapiens, UniProt P49760); assay: HotSpot kinase assay; conditions: read-out: % Enzyme Activity (relative to DMSO control), 10 uM
Excerpt: as §1

MNK1 = MNK1 (Homo sapiens, UniProt Q9BUB5); assay: HotSpot kinase assay; conditions: read-out: % Enzyme Activity (relative to DMSO control), 10 uM
RSK4 = RSK4 (Homo sapiens, UniProt Q9UK32); assay: HotSpot kinase assay; conditions: read-out: % Enzyme Activity (relative to DMSO control), 10 uM
Excerpt: as §1

FLT4/VEGFR3 = FLT4/VEGFR3 (Homo sapiens, UniProt P35916); assay: HotSpot kinase assay; conditions: read-out: % Enzyme Activity (relative to DMSO control), 10 uM
BMPR2 = BMPR2 (Homo sapiens, UniProt Q13873); assay: HotSpot kinase assay; conditions: read-out: % Enzyme Activity (relative to DMSO control), 10 uM
Sequence of BMPR2 (Q13873 27-1038): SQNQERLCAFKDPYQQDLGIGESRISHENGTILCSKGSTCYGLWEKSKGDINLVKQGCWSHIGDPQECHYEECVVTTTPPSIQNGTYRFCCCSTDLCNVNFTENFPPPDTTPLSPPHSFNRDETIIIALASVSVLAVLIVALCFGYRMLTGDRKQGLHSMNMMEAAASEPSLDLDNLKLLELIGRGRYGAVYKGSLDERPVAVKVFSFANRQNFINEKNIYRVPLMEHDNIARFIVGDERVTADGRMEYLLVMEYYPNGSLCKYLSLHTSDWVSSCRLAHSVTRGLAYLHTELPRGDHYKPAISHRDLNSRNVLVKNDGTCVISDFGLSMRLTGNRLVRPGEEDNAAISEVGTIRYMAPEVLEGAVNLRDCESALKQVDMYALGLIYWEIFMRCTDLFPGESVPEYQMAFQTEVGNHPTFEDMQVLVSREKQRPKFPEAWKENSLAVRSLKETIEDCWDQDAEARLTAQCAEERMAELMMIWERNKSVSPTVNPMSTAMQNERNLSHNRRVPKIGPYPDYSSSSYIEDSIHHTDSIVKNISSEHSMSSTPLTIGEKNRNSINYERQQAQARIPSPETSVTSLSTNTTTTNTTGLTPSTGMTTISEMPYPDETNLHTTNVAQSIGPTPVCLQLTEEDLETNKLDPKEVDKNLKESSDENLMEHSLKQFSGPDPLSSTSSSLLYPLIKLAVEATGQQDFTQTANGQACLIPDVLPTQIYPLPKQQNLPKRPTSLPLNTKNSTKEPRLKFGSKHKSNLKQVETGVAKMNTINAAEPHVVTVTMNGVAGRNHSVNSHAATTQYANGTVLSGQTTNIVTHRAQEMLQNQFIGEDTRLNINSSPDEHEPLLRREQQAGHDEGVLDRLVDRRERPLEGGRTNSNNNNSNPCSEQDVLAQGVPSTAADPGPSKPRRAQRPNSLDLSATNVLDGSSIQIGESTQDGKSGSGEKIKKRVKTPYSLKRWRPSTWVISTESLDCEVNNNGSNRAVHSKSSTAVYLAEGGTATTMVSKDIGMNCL

[1] = system: HEK-293 cells stably overexpressing ALPK1; assay: CXCL10, TNF, CXCL8 mRNA (qPCR); conditions: 30 h
CHK2 = CHK2 (Homo sapiens, UniProt O96017); assay: HotSpot kinase assay; conditions: read-out: % Enzyme Activity (relative to DMSO control), 10 uM
TRKC = TRKC (Homo sapiens, UniProt Q16288); assay: HotSpot kinase assay; conditions: read-out: % Enzyme Activity (relative to DMSO control), 10 uM
Excerpt: as §1

CDK5/P25 = CDK5/P25 (Homo sapiens, UniProt Q00535); assay: HotSpot kinase assay; conditions: read-out: % Enzyme Activity (relative to DMSO control), 10 uM
Excerpt: as §1

EIF2AK3 = EIF2AK3 (Homo sapiens, UniProt Q9NZJ5); assay: HotSpot kinase assay; conditions: read-out: % Enzyme Activity (relative to DMSO control), 10 uM
Excerpt: as §1

FAK/PTK2 = FAK/PTK2 (Homo sapiens, UniProt Q05397); assay: HotSpot kinase assay; conditions: read-out: % Enzyme Activity (relative to DMSO control), 10 uM
Excerpt: as §1

`C#C[C@@](C)(c1ccc(Cl)cc1)c1csc(NC(=O)c2c(F)cc(N3CCNCC3)cc2F)n1` (stereo in doubt) [DF-003] gave a remaining activity at 10 µM (EPHA4) of 161%, a remaining activity at 10 µM (PAK6) of 84.2% and a remaining activity at 10 µM (DYRK1B) of 88.5%. The remaining activity at 10 µM (MLCK/MYLK) was 68.4%, the remaining activity at 10 µM (CDK18/cyclin Y (PCTK3)) was 92.3% and the remaining activity at 10 µM (NEK5) was 83.4%. The remaining activity at 10 µM (PDK4/PDHK4) was 103%, the remaining activity at 10 µM (mTOR/FRAP1) was 92.1% and the remaining activity at 10 µM (MAPKAPK5/PRAK) was 93%. For the same compound, the remaining activity at 10 µM (MAPKAPK3) was 112%, the remaining activity at 10 µM (PDGFRb) was 80.2% and the remaining activity at 10 µM (HIPK2) was 101%. It also gave a remaining activity at 10 µM (EPHA2) of 114%, a remaining activity at 10 µM (PKCepsilon) of 81.6% and a remaining activity at 10 µM (LRRK2) of 99.2%. For the same compound, the remaining activity at 10 µM (MKK6) was 105%, the remaining activity at 10 µM (GRK6) was 117% and the remaining activity at 10 µM (CK1a1L) was 97.2%. It also gave a remaining activity at 10 µM (PKA) of 195%, a remaining activity at 10 µM (PBK/TOPK) of 90.5% and a remaining activity at 10 µM (MST1/STK4) of 97.1%. It also gave a remaining activity at 10 µM (DAPK2) of 73.9%, a remaining activity at 10 µM (MEK2) of 89.8% and a remaining activity at 10 µM (NEK7) of 118%. It also gave a remaining activity at 10 µM (EPHB2) of 101%, a remaining activity at 10 µM (CDK8/cyclin C) of 92.9% and a remaining activity at 10 µM (TYRO3/SKY) of 51.8%. The remaining activity at 10 µM (PIM1) was 74%, the remaining activity at 10 µM (CLK2) was 90.6% and the remaining activity at 10 µM (MNK1) was 85.4%. For the same compound, the remaining activity at 10 µM (RSK4) was 88.3%, the remaining activity at 10 µM (FLT4/VEGFR3) was 98.2% and the remaining activity at 10 µM (BMPR2) was 113%. The “impact on basal expression of TNF, CXCL10, CXCL8” value [1] was “no impact”, the remaining activity at 10 µM (CHK2) was 89.9% and the remaining activity at 10 µM (TRKC) was 91%. The remaining activity at 10 µM (CDK5/P25) was 98.6%, the remaining activity at 10 µM (EIF2AK3) was 81.9% and the remaining activity at 10 µM (FAK/PTK2) was 128%.
